The record followed here is PubChem BioAssay AID488892 (Sanford-Burnham Center for Chemical Genomics, 2010).

In the assay the target is Alkaline phosphatase, placental type (Homo sapiens) (UniProt P05187). The assay can be described thus: PLAP enzyme inhibitors, dose response, selectivity assay for human IAP inhibitor project, biochemical, uHTS hits, luminescence (AID 488892). The conditions noted are these: purified PLAP, CDP-Star luminescence, 30 min.

Each structure is given as a SMILES string. The source made the active and inactive calls.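 Rule for the calls: active = mean IC50 below a set limit; inactive = the rest.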

For `c1ccc(CSCCc2ccncc2)cc1`, the IC50 is 30.3 µM. The figure for `C=CCN1C(=O)/C(=C\C=C2\N(C)c3ccccc3C2(C)C)SC1=S` is 10.6 µM; for `CC(C)=CCc1c(O)ccc2c1OC(c1ccc(O)c(O)c1)CC2=O` (stereo not drawn) it is 44.8 µM.

Regarding `COc1ccc2nc3cc(Cl)ccc3c(Nc3cc(CN4CCCC4)c(O)c(CN4CCCC4)c3)c2n1`, the IC50 was 11.5 µM. Then `N#C/C(=C\c1ccc(O)c(O)c1)C(=O)c1ccc(O)c(O)c1`, with 5.59 µM; and `O=C1C2C3C=CC(C3)C2C(=O)N1c1n[nH]c(-c2cccnc2)n1` (stereo not drawn), with > 100 µM (inactive). The figure for `O=c1c2cc(O)c(O)cc2oc2cc(O)c(C3OC(CO)C(O)C(O)C3O)c(O)c12` (stereo not drawn) is 2.71 µM. The figure for `CC[n+]1c(/C=C/c2c[nH]c3ccccc23)ccc2cc(C)ccc21` is 10.8 µM. Regarding `O=C(NN1C(=O)/C(=C/c2ccc(O)c([N+](=O)[O-])c2)SC1=S)c1ccccc1Cl`, the IC50 was 27.9 µM. For the compound `CC1=NN(Cc2ccccc2)C(=O)/C1=C\c1ccc(N(C)C)cc1`, the IC50 is 37.8 µM.

For the compound `CCN1/C(=C\c2ccc3ccccc3[n+]2CC)Sc2cc(C)ccc21`, the IC50 is 28.2 µM. Then `C/C(=N/Nc1ccccc1[N+](=O)[O-])c1ccc([N+](=O)[O-])cc1`, with > 100 µM (inactive); and `CN(C)c1ccc(N=Nc2ccccc2Br)cc1`, with 27.9 µM; and `Nc1ccc(-c2c3ccc(=O)cc-3oc3cc(O)ccc23)cc1C(=O)O`, with 29.9 µM. Regarding `O=C(/C=C/c1ccccc1O)c1ccco1`, the IC50 was 75.4 µM. The figure for `COc1cc(/C=C(\C#N)C(=O)c2ccc(O)c(O)c2)cc(I)c1O` is 15.5 µM; for `Oc1ccc(N=Nc2c(O)ccc3ccccc23)cc1` it is 18.4 µM; for `CN(C)c1ccc2nc3c(=O)[nH]c(=O)nc-3n(CC(O)C(O)C(O)CO)c2c1` (stereo not drawn) it is 30.3 µM. The figure for `CCOc1cc(/C=C2/C(=O)ON=C2C)cc(Br)c1O` is 35.1 µM. The figure for `CNc1nnc(-c2cc3ccccc3oc2=O)s1` is 4.1 µM; for `O=C1Nc2ccccc2/C1=N\N=C\c1ccc(O)c(O)c1` it is 8.64 µM. Take `COc1ccc(C=C2C(=O)c3ccccc3C2=O)cc1O`: the IC50 is 14.7 µM.

As to `CCN(CC)c1ccc(N=Nc2nn(C)c(C)c2[N+](=O)[O-])cc1`, the IC50 is 49 µM.
